Here are results for one compound from patent US20170252446A1, “USE OF MESO- AND NANOPOROUS MATERIAL FOR SURFACTANT TRAPPING IN NANOPARTICLE SUSPENSIONS” (Therakine BioDelivery GmbH, priority 2014, published 2017).

The data set is described as follows: Surface tension of SDS solution after repeated additions of mesoporous MCM particles (surfactant trapping). Conditions: pure SDS solution (8.2 mM), before addition of MCM particles. Format: physicochemical. The procedure:
Anionic mesoporous nanoparticles (MCM) were suspended into water, wetted, and separated from free water by centrifugation. Pure sodium dodecyl sulphate (SDS) solution (8.2 mM) provides a starting surface tension of about 36.5 mN/m. Per 1 g of MCM particles, 15 mL of SDS is added, resulting in an increase of the surface tension to 45 mN/m. Second, third, and fourth additions result in 57.5 mN/m, 66.8 mN/m, and 70.5 mN/m, respectively. After four mesoporous particle additions, the pure water value is already approached. This is illustrated in FIG. 1. Such non-limiting methods have been unexpectedly discovered to be useful for reliably and predictably preparing a stable nanoparticle suspension of a poorly soluble active ingredient. Cationic mesoporous nanoparticles (MCM) are suspended in water, wetted, and separated from free water by centrifugation. Pure sodium dodecyl sulphate (SDS) solution (8.2 mM) provides a starting surface tension of about 36.5 mN/m. Per 1 g of MCM particles, 15 mL of SDS is added, resulting in an increase of the surface tension to 40 mN/m. Second and third additions result in 54.0 mN/m and 70.0 mN/m, respectively. After three mesoporous particle additions, the pure water value is already approached. This is illustrated in FIG. 2. […]

`CCCCCCCCCCCCOS(=O)(=O)[O-].[Na+]` [sodium dodecyl sulphate (SDS), sodium dodecyl sulphate]: the starting surface tension result is listed as “about 36.5 mN/m”.
